Patent EP4289427A1, “DIHYDRO[1,8]NAPHTHYRIDIN-7-ONE AND PYRIDO[3,2-B][1,4]OXAZIN-3-ONE FOR USE IN TREATING CANCER, AND METASTASES IN PARTICULAR” (Anagenesis Biotechnologies, priority 2022, dated 2023)

What was measured:
RD cells [1] = assay: Cytotoxicity assay (CellTiter-Glo 2.0) on RD cells; assay type: cell-based, Human; settings: for IC50: Homo sapiens
Summary of the method: (§1)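 Viability read-out: ATP-based luminescence (CellTiter-Glo 2.0, 10 min, RT, dark) after compound exposure of freshly seeded cells for a cell-line-specific duration; relative IC50 derived from viability.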

4T1 cells [2] = assay: Cytotoxicity assay (CellTiter-Glo 2.0) on 4T1 cells; assay type: cell-based, Mouse; settings: incubation 2 days; for IC50: Mus musculus, 48 h
Summary of the method: as §1

MDA-MB-231 cells [3] = assay: Cytotoxicity assay (CellTiter-Glo 2.0) on MDA-MB-231 cells; assay type: cell-based, Human; settings: incubation 3 days; for IC50: Homo sapiens, 72 h
Summary of the method: as §1

EoL-1 cells = assay: Cytotoxicity assay (CellTiter-Glo 2.0) on EoL-1 cells; assay type: cell-based, Human; settings: incubation 1 day; for IC50: Homo sapiens, EOL1, 24 h
Summary of the method: as §1

HUVECs = assay: Tube formation assay (anti-angiogenic activity); assay type: cell-based, human; settings: incubation 16 to 18 hours; for IC50: Homo sapiens, HUVEC
Summary of the method: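 HUVECs plated at 5000 cells/well on reduced growth factor basement membrane matrix, then exposed to compounds for 16 to 18 hours at 37°C. Cells stained with calcein-AM; tube networks imaged by confocal fluorescence microscopy and quantified.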

RD cells [4] = assay: Differentiation of RD cells into myotubes (alpha-actinin staining); assay type: cell-based, Human; settings: 7 days, Figure 3
Description: RD cells are cancer cells of muscle origin that arose from myogenic precursors that fail to complete muscle differentiation. One strategy to stop their progression is to differentiate them into myotubes.
To allow differentiation, RD cells were seeded at a density of 3500 cells/well in a 384-well plate coated with collagen type I, in DMEM (4,5g/L glucose) with L-Gln (cat.no. 41965-039 from Gibco) supplemented with 5% of knockout serum replacement (cat.no. 10828-028 from Gibco), 1% PenStrep (Gibco), 1% MEM NEAA (Gibco) and 0.1 mM 2-mercaptoethanol (Gibco) (hereafter "K5 medium"). Compounds to be tested were then added onto the cells and incubated for 7 days at 37°C. On day 7, cells were fixed with 4% paraformaldehyde solution and immunostained for α-actinin (cat.no. EA-53 from Sigma, at 1/30000).

MDA-MB-231 cells [5] = assay: Scratch (wound healing) assay, cell migration; assay type: cell-based, Human; settings: 24 hours, Figure 1
Description: Cell migration is involved in several pathological cancer processes such as tumor invasion, neoangiogenesis and metastasis. Scratch (or wound healing) assay is a method to study two-dimensional cell migration in vitro. It is based on the observation that cells growing in a monolayer migrate to reestablish cell contacts after a mechanical scratch wound.
The MDA-MB-231 cells were seeded into a 24-well plate and grown to confluent density. A scrape was made in each well using a pipette tip. Then, the cells monolayers were incubated for 2 hours with 5 µg/ml mitomycin C to stop cell proliferation. The cells were treated with the compounds to be tested for 24 hours. The cells were stained using CellMask Green actin tracking stain (cat.no. A57246 from Fisher Scientific) at time zero and at endpoint. Pictures were acquired using a fluorescence microscope (IXM from Molecular Device). The scratch area was measured with the ImageJ software. The recovery of the scratch area was calculated as a percentage of the scratch area at time zero.

4T1 cells [6] = assay: Epithelial-mesenchymal transition marker expression by qRT-PCR; assay type: cell-based, Mouse; set-up: key: ↗: increased expression; ↘: decreased expression; =: unchanged expression levels; settings: 24 hours, expression normalized against RPL13
Text: The epithelial-mesenchymal transition (hereafter "EMT") is a process by which epithelial cells lose their cell polarity and cell-cell adhesion while gaining migratory and invasive properties to become mesenchymal stem cells. EMT is commonly measured by quantifying both epithelial and mesenchymal marker's expression by quantitative reverse-transcription polymerase chain reaction (hereafter "qRT-PCR"). EMT inhibition is observed when epithelial markers are stable or increased while mesenchymal markers are decreased.
4T1 cells were treated with compounds to be tested or DMSO for 24 hours. 4T1 cells were then harvested directly in NucleoZol lysis buffer (cat. no. 740404.200 from Macherey-Nagel), according to the manufacturer's instructions. Total RNA was extracted using the NucleoSpin RNA set for NucleoZol (cat. no. 740406.50 from Macherey-Nagel). The quantity and purity of RNA was determined using a Quickdrop (Molecular Devices). RT-PCR was performed on 500 ng total RNA using iScript gDNA clear cDNA synthesis Kit (cat.no. 1725035 from Biorad). The qPCR was run on a QuantStudio 5 real time thermocycler (Applied Biosystems), with PowerUp SYBR Green Master Mix (cat.no. A25742 from Fisher Scientific) and the primers listed in Table 16.
Expression data of EMT markers have been normalized against expression data of the housekeeping gene RPL13.

4T1 cells [7] = assay: Colony forming (clonogenic) assay; assay type: cell-based, Mouse; settings: 6 days of treatment, Figure 2
Description: Cancer stem cells are characterized by their ability to undergo virtually unlimited divisions. Colony forming assay (or clonogenic assay) is an in vitro assay designed to assess capability of single cells to grow into large colonies through clonal expansion.
4T1 cells were seeded at a density of 500 cells per well of six-well plates in 4T1 medium. Compounds to be tested were added 24 hours after seeding. After 6 days of treatment, the cells were fixed in 4% PFA and stained with 1% aqueous solution of crystal violet. Pictures of the entire wells were acquired, and the area of the positives colonies was evaluated by ImageJ software (Wayne Rasband; NIH).

SMILES | Cytotoxicity (RD cells [1]; 2 day-treatment) | Cytotoxicity (RD cells [1]; 4 day-treatment) | IC50 (RD cells [1]; 48 h, 2 day-treatment) | IC50 (RD cells [1]; 96 h, 4 day-treatment) | IC50 (4T1 cells [2]) | Cytotoxicity (4T1 cells [2]) | IC50 (MDA-MB-231 cells [3]) | Cytotoxicity (MDA-MB-231 cells [3]) | IC50 (EoL-1 cells) | Cytotoxicity (EoL-1 cells) | IC50 (HUVECs) | Angiogenesis inhibition (HUVECs) | differentiation into myotubes (RD cells [4]) | migration in the scratch assay (MDA-MB-231 cells [5]) | Epithelial markers E-cadherin (4T1 cells [6]) | Epithelial markers EpCAM (4T1 cells [6]) | Mesenchymal markers Fibronectin (4T1 cells [6]) | Mesenchymal markers Vimentin (4T1 cells [6]) | colony growth (4T1 cells [7])
CSc1cc(Oc2ccnc3c2CCC(=O)N3)ccc1NC(=O)Nc1cc(C(C)(C)C)nn1-c1cccc(F)c1 [Compound 013, 1-[5-tert-butyl-2-(3-fluorophenyl)pyrazol-3-yl]-3-[2-methylsulfanyl-4-[(7-oxo-6,8-dihydro-5H-1,8-naphthyridin-4-yl)oxy]phenyl]urea] | ++ (50% ≤ cytotoxicity < 85%) | ++ (50% ≤ cytotoxicity < 85%) | 1000 to 5000 nM | 5000 to 10000 nM | < 1000 nM | +++ (cytotoxicity ≥ 85%) | 1000 to 5000 nM | ++ (50% ≤ cytotoxicity < 85%) | 1 to 10 nM | +++ (cytotoxicity ≥ 85%) | < 100 nM | +++ (angiogenesis inhibition ≥ 80%) | dose-dependent differentiation into myotubes |  |  |  |  |  | 
CC(C)(C)c1cc(NC(=O)Nc2ccc(Oc3ccnc4c3CCC(=O)N4)cc2C(F)(F)F)n(-c2cncc(F)c2)n1 [Compound 016, 1-[5-tert-butyl-2-(5-fluoro-3-pyridyl)pyrazol-3-yl]-3-[4-[(7-oxo-6,8-dihydro-5H-1,8-naphthyridin-4-yl)oxy]-2-(trifluoromethyl)phenyl]urea] | ++ (50% ≤ cytotoxicity < 85%) | ++ (50% ≤ cytotoxicity < 85%) | 1000 to 5000 nM | 5000 to 10000 nM | < 1000 nM | +++ (cytotoxicity ≥ 85%) | 1000 to 5000 nM | ++ (50% ≤ cytotoxicity < 85%) | 10 to 100 nM | +++ (cytotoxicity ≥ 85%) | < 100 nM | +++ (angiogenesis inhibition ≥ 80%) |  | inhibition of their migration | ↗ | ↗ | ↘ | ↘ | inhibition of colony growth
CSc1cc(Oc2ccnc3c2OCC(=O)N3)ccc1NC(=O)Nc1cc(C(C)(C)C)nn1-c1cncc(F)c1 [Compound 018, 1-[5-tert-butyl-2-(5-fluoro-3-pyridyl)pyrazol-3-yl]-3-[2-methylsulfanyl-4-[(3-oxo-4H-pyrido[3,2-b][1,4]oxazin-8-yl)oxy]phenyl]urea] | + (20 % ≤ cytotoxicity < 50%) | ++ (50% ≤ cytotoxicity < 85%) | 1000 to 5000 nM | 1000 to 5000 nM | < 1000 nM | +++ (cytotoxicity ≥ 85%) | 1000 to 5000 nM | ++ (50% ≤ cytotoxicity < 85%) | 1 to 10 nM | +++ (cytotoxicity ≥ 85%) | < 100 nM | +++ (angiogenesis inhibition ≥ 80%) | dose-dependent differentiation into myotubes |  | ↗ | ↗ | ↘ | ↘ | 
CSc1cc(Oc2ccnc3c2OCC(=O)N3)ccc1NC(=O)Nc1cc(C(C)(C)C)on1 [Compound 021, 1-(5-tert-butylisoxazol-3-yl)-3-[2-methylsulfanyl-4-[(3-oxo-4H-pyrido[3,2-b][1,4]oxazin-8-yl)oxy]phenyl]urea] | ++ (50% ≤ cytotoxicity < 85%) | ++ (50% ≤ cytotoxicity < 85%) | 1000 to 5000 nM | 1000 to 5000 nM | 1000 to 5000 nM | ++ (50% ≤ cytotoxicity < 85%) | 1000 to 5000 nM | ++ (50% ≤ cytotoxicity < 85%) | < 1 nM | +++ (cytotoxicity ≥ 85%) | 100 to 500 nM | +++ (angiogenesis inhibition ≥ 80%) | dose-dependent differentiation into myotubes |  |  |  |  |  | 
CC(C)(C)c1cc(NC(=O)Nc2ccc(Oc3ccnc4c3CCC(=O)N4)cc2C(F)(F)F)on1 [Compound 023, 1-(3-tert-butylisoxazol-5-yl)-3-[4-[(7-oxo-6,8-dihydro-5H-1,8-naphthyridin-4-yl)oxy]-2-(trifluoromethyl)phenyl]urea] | ++ (50% ≤ cytotoxicity < 85%) | ++ (50% ≤ cytotoxicity < 85%) | 1000 to 5000 nM | 1000 to 5000 nM | 1000 to 5000 nM | +++ (cytotoxicity ≥ 85%) | 1000 to 5000 nM | ++ (50% ≤ cytotoxicity < 85%) | 1 to 10 nM | +++ (cytotoxicity ≥ 85%) | 100 to 500 nM | +++ (angiogenesis inhibition ≥ 80%) |  |  | ↗ | = | ↘ | ↘ | 
CSc1cc(Oc2ccnc3c2CCC(=O)N3)ccc1NC(=O)Nc1cc(C(C)(C)C)nn1-c1cncc(F)c1 [Compound 027, 1-[5-tert-butyl-2-(5-fluoro-3-pyridyl)pyrazol-3-yl]-3-[2-methylsulfanyl-4-[(7-oxo-6,8-dihydro-5H-1,8-naphthyridin-4-yl)oxy]phenyl]urea] | ++ (50% ≤ cytotoxicity < 85%) | ++ (50% ≤ cytotoxicity < 85%) | 1000 to 5000 nM | 1000 to 5000 nM | < 1000 nM | +++ (cytotoxicity ≥ 85%) | < 1000 nM | ++ (50% ≤ cytotoxicity < 85%) | 1 to 10 nM | +++ (cytotoxicity ≥ 85%) | < 100 nM | +++ (angiogenesis inhibition ≥ 80%) |  |  | ↗ | = | ↘ | ↘ | 
Cc1ccc(-n2nc(C(C)(C)C)cc2NC(=O)Nc2ccc(Oc3ccnc4c3OCC(=O)N4)cc2C(F)(F)F)cn1 [Compound 040, 1-[5-tert-butyl-2-(6-methyl-3-pyridyl)pyrazol-3-yl]-3-[4-[(3-oxo-4H-pyrido[3,2-b][1,4]oxazin-8-yl)oxy]-2-(trifluoromethyl)phenyl]urea] | ++ (50% ≤ cytotoxicity < 85%) | ++ (50% ≤ cytotoxicity < 85%) | 5000 to 10000 nM | 5000 to 10000 nM | < 1000 nM | +++ (cytotoxicity ≥ 85%) | 1000 to 5000 nM | ++ (50% ≤ cytotoxicity < 85%) | 10 to 100 nM | ++ (50% ≤ cytotoxicity < 85%) | 100 to 500 nM | +++ (angiogenesis inhibition ≥ 80%) |  | inhibition of their migration |  |  |  |  | 
